Laboratory results: US10105357B2, “Indication of antibiotic drugs for preparation of cancer inhibition pharmaceutical composition” (LAUNX BIOMEDICAL CO., LTD., priority 2014, dated 2018)

Legend:
Format in all cases: cell-based, human
[1] = system: cancer cell lines; assay: Cell viability analysis (WST-1) on cancer cell lines; conditions: drug 10 μM, 72 hours, WST-1; Table 3
[2] = system: HI650 (Lung Adenocarcinoma); assay: Cell viability analysis, lung cancer HI650
[3] = system: A549 (Lung Adenocarcinoma); assay: Cell viability analysis, lung cancer A549; conditions: for The results of antibiotic drug inhibiting cancer cell lines (cell viability analysis), A549: repeated experiment
[4] = system: AGS (Gastric Adenocarcinoma); assay: Cell viability analysis, gastric cancer AGS
[5] = system: MKN-45 (Gastric Adenocarcinoma); assay: Cell viability analysis, gastric cancer MKN-45; conditions: for The results of antibiotic drug inhibiting cancer cell lines (cell viability analysis), MKN-45: repeated experiment
[6] = system: LoVo (Colorectal Adenocarcinoma); assay: Cell viability analysis, colon cancer LoVo; conditions: for cell viability (survival rate), LoVo: drug 10 μM, 72 hours, WST-1, OD450 nm
[7] = system: A375 (Amelanotic Melanoma); assay: Cell viability analysis, skin cancer A375; conditions: for The results of antibiotic drug inhibiting cancer cell lines (cell viability analysis), A375: repeated experiment
[8] = system: BCC (basal cell carcinoma); assay: Cell viability analysis, skin cancer BCC; conditions: BCC; repeated experiment
[9] = system: HeLa (Cervix Adenocarcinoma); assay: Cell viability analysis, cervical cancer HeLa
[10] = system: TSGH-8301 (Urinary Bladder Carcinoma); assay: Cell viability analysis, bladder cancer TSGH-8301; conditions: for The results of antibiotic drug inhibiting cancer cell lines (cell viability analysis), TSGH-8301: repeated experiment
[11] = system: T24; assay: Cell viability analysis, bladder cancer T24; conditions: T24; repeated experiment
[12] = system: MCF7 (Mammary Gland, Adenocarcinoma); assay: Cell viability analysis, breast cancer MCF7; conditions: for The results of antibiotic drug inhibiting cancer cell lines (cell viability analysis), MCF-7: repeated experiment
[13] = system: MDA-MB-231 (Mammary Gland, Adenocarcinoma); assay: Cell viability analysis, breast cancer MDA-MB-231; conditions: MDA-MB231; repeated experiment
[14] = system: BxPC-3; assay: Cell viability analysis, pancreatic cancer BxPC-3; conditions: BxPC-3; repeated experiment
[15] = system: AsPC-1; assay: Cell viability analysis, pancreatic cancer AsPC-1; conditions: AsPC-1; repeated experiment
[16] = system: TOV-21G; assay: Cell viability analysis, ovarian cancer TOV-21G; conditions: TOV-21G; repeated experiment
[17] = system: SAS (Tongue squamous cell carcinoma); assay: Cell viability analysis, tongue cancer SAS; conditions: SAS; repeated experiment
[18] = system: U-2OS; assay: Cell viability analysis, osteosarcoma U-2OS; conditions: U2OS; repeated experiment
[19] = system: 786-O (Renal adenocarcinoma); assay: Cell viability analysis, renal cancer 786-O; conditions: 786-O; repeated experiment
[20] = system: HL-60 (Acute Promyelocytic Leukemia); assay: Cell viability analysis, leukemia HL-60; conditions: drug 10 μM, 72 hours, WST-1, OD450 nm
[21] = system: HepG2 (Hepatocellular Carcinoma); assay: Cell viability analysis, hepatic cancer HepG2
[22] = system: C-33A (Cervical carcinoma); assay: Cell viability analysis, cervical cancer C-33A; conditions: C-33A; repeated experiment
[23] = system: NIH: OVCAR-3; assay: Cell viability analysis, ovarian cancer NIH: OVCAR-3; conditions: NIH-OVCAR-3; repeated experiment
[24] = system: PC3 (p53−) (Prostate Adenocarcinoma); assay: Cell viability analysis, prostate cancer PC3; conditions: Homo sapiens, 72 h, drug 10 μM, 72 hours, WST-1, OD450 nm; read-out: cell viability (survival rate), PC3
[25] = drug 10 μM, 72 hours, WST-1, OD450 nm

SMILES: C[C@@H]1[C@H](O)[C@@H](C)/C=C/C=C/CC/C=C/C=C/C=C/C=C/C(O[C@H]2O[C@H](C)[C@@H](O)[C@H](N)[C@@H]2O)CC2O[C@](O)(CC(O)C(O)CCC(O)CC(O)CC(O)CC(=O)O[C@H]1C)CC(O)C2C(=O)O (stereo partly shown) [Nystatin (Mycostatin), Nystatin]
- inhibition effect on different cancer cell lines [1]: significant inhibition effect
- The results of antibiotic drug inhibiting cancer cell lines (cell viability analysis), H1650 ([2]; H1650, repeated experiment): 72.42
- cell viability (survival rate), H1650 [2, 25]: 65.4
- The results of antibiotic drug inhibiting cancer cell lines (cell viability analysis), A549 [3]: 94.3
- cell viability (survival rate), A549 [3, 25]: 37.1
- cell viability (survival rate), AGS [4, 25]: 50.8
- The results of antibiotic drug inhibiting cancer cell lines (cell viability analysis), MKN-45 [5]: 95.89
- cell viability (survival rate), MKN-45 [5, 25]: 44.7
- cell viability (survival rate), LoVo [6]: 70.9
- The results of antibiotic drug inhibiting cancer cell lines (cell viability analysis), A375 [7]: 99.37
- cell viability (survival rate), A375 [7, 25]: 62.4
- The results of antibiotic drug inhibiting cancer cell lines (cell viability analysis), BCC [8]: 92.4
- cell viability (survival rate), HeLa [9, 25]: 59.2
- The results of antibiotic drug inhibiting cancer cell lines (cell viability analysis), TSGH-8301 [10]: 91.24
- cell viability (survival rate), TSGH [10, 25]: 42.1
- The results of antibiotic drug inhibiting cancer cell lines (cell viability analysis), T24 [11]: 76.44
- The results of antibiotic drug inhibiting cancer cell lines (cell viability analysis), MCF-7 [12]: 89.88
- cell viability (survival rate), MCF7 [12, 25]: 46.4
- The results of antibiotic drug inhibiting cancer cell lines (cell viability analysis), MDA-MB231 [13]: 86.09
- The results of antibiotic drug inhibiting cancer cell lines (cell viability analysis), BxPC-3 [14]: 69.94
- The results of antibiotic drug inhibiting cancer cell lines (cell viability analysis), AsPC-1 [15]: 75.83
- The results of antibiotic drug inhibiting cancer cell lines (cell viability analysis), TOV-21G [16]: 74.99
- The results of antibiotic drug inhibiting cancer cell lines (cell viability analysis), SAS [17]: 97.09
- The results of antibiotic drug inhibiting cancer cell lines (cell viability analysis), U2OS [18]: 76.11
- The results of antibiotic drug inhibiting cancer cell lines (cell viability analysis), 786-O [19]: 89.48
- cell viability (survival rate), HL-60 [20]: 96.2

SMILES: CCCCCCCCCCCCCCCC[N+](C)(C)C.[Br-] [Cetrimonium Bromide]
- inhibition effect on different cancer cell lines [1]: significant inhibition effect
- cell viability (survival rate), H1650 [2, 25]: 54.6
- The results of antibiotic drug inhibiting cancer cell lines (cell viability analysis), A549 [3]: 20.71
- cell viability (survival rate), A549 [3, 25]: 25.0
- The results of antibiotic drug inhibiting cancer cell lines (cell viability analysis), AGS ([4]; AGS, repeated experiment): 20.83
- cell viability (survival rate), AGS [4, 25]: 42.4
- The results of antibiotic drug inhibiting cancer cell lines (cell viability analysis), MKN-45 [5]: 35.25
- The results of antibiotic drug inhibiting cancer cell lines (cell viability analysis), HepG2 ([21]; HepG2, repeated experiment): 56.6
- The results of antibiotic drug inhibiting cancer cell lines (cell viability analysis), LoVo ([6]; LoVo, repeated experiment): 51.72
- cell viability (survival rate), LoVo [6]: 55.4
- The results of antibiotic drug inhibiting cancer cell lines (cell viability analysis), A375 [7]: 12.93
- The results of antibiotic drug inhibiting cancer cell lines (cell viability analysis), BCC [8]: 23.59
- The results of antibiotic drug inhibiting cancer cell lines (cell viability analysis), HeLa ([9]; HeLa, repeated experiment): 20.73
- cell viability (survival rate), HeLa [9, 25]: 42.6
- The results of antibiotic drug inhibiting cancer cell lines (cell viability analysis), C-33A [22]: 35.29
- The results of antibiotic drug inhibiting cancer cell lines (cell viability analysis), TSGH-8301 [10]: 22.33
- cell viability (survival rate), TSGH [10, 25]: 34.8
- The results of antibiotic drug inhibiting cancer cell lines (cell viability analysis), T24 [11]: 19.1
- The results of antibiotic drug inhibiting cancer cell lines (cell viability analysis), MCF-7 [12]: 47.47
- The results of antibiotic drug inhibiting cancer cell lines (cell viability analysis), MDA-MB231 [13]: 33.73
- The results of antibiotic drug inhibiting cancer cell lines (cell viability analysis), BxPC-3 [14]: 25.89
- The results of antibiotic drug inhibiting cancer cell lines (cell viability analysis), NIH-OVCAR-3 [23]: 56.47
- The results of antibiotic drug inhibiting cancer cell lines (cell viability analysis), TOV-21G [16]: 15.69
- The results of antibiotic drug inhibiting cancer cell lines (cell viability analysis), SAS [17]: 21.73
- The results of antibiotic drug inhibiting cancer cell lines (cell viability analysis), 786-O [19]: 16.85

SMILES: CCCCCCCCCCCC[N+](C)(C)CCOc1ccccc1 [Domiphen Bromide]
- inhibition effect on different cancer cell lines [1]: significant inhibition effect
- viability at 10 µM ([2]; Homo sapiens, NCI-H1650, 72 h, drug 10 μM, 72 hours, WST-1, OD450 nm, read-out: cell viability (survival rate), H1650): 46.5%
- viability at 10 µM ([3]; Homo sapiens, A549, 72 h, drug 10 μM, 72 hours, WST-1, OD450 nm, read-out: cell viability (survival rate), A549): 28.7%
- viability at 10 µM ([4]; Homo sapiens, 72 h, drug 10 μM, 72 hours, WST-1, OD450 nm, read-out: cell viability (survival rate), AGS): 32.5%
- viability at 10 µM ([5]; Homo sapiens, MKN-45, 72 h, drug 10 μM, 72 hours, WST-1, OD450 nm, read-out: cell viability (survival rate), MKN-45): 44.4%
- viability at 10 µM ([21]; Homo sapiens, HepG2, 72 h, drug 10 μM, 72 hours, WST-1, OD450 nm, read-out: cell viability (survival rate), HepG2): 62.1%
- viability at 10 µM ([6]; Homo sapiens, LoVo, 72 h, read-out: cell viability (survival rate), LoVo, drug 10 μM, 72 hours, WST-1, OD450 nm): 48.7%
- viability at 10 µM ([7]; Homo sapiens, A-375, 72 h, drug 10 μM, 72 hours, WST-1, OD450 nm, read-out: cell viability (survival rate), A375): 36.3%
- viability at 10 µM ([9]; Homo sapiens, HeLa, 72 h, drug 10 μM, 72 hours, WST-1, OD450 nm, read-out: cell viability (survival rate), HeLa): 38%
- viability at 10 µM [24]: 38.9%
- viability at 10 µM ([10]; Homo sapiens, 72 h, drug 10 μM, 72 hours, WST-1, OD450 nm, read-out: cell viability (survival rate), TSGH): 37.3%
- viability at 10 µM ([12]; Homo sapiens, MCF7, 72 h, drug 10 μM, 72 hours, WST-1, OD450 nm, read-out: cell viability (survival rate), MCF7): 31.3%
- viability at 10 µM ([20]; Homo sapiens, HL-60, 72 h, read-out: cell viability (survival rate), HL-60): 30%
